Earlier results, collected in patent US8952000B2, “Cholesterol absorption inhibitor and omega 3 fatty acids for the reduction of cholesterol and for the prevention or reduction of cardiovascular, cardiac and vascular events” (Pivotal Therapeutics Inc., priority 2011, dated 2015).

solubility in ethanol, methanol, and acetone (ethanol, methanol, acetone): freely to very soluble | solubility in water (water): practically insoluble
SMILES: O=C1[C@H](CC[C@H](O)c2ccc(F)cc2)[C@@H](c2ccc(O)cc2)N1c1ccc(F)cc1 [Ezetimibe, (3R,4S)-1-(p-fluorophenyl)-3-[(3S)-3-(p-fluorophenyl)-3-hydroxypropyl]-4-(p-hydroxyphenyl)-2-azetidinone]
